Legend:
[1] = Hit confirmation in dose-response curve in HepG2 cytotoxicity assay, at 72h; assay type: toxicity, cell-based; design: timepoint 72 hour; conditions: human, HepG2 cells
Plasmodium falciparum [2] = assay: Hit confirmation in dose-response curve in NF54 pLDH assay, at 72h; assay type: functional, organism-based; design: timepoint 72 hour; conditions: NF54, Erythrocyte
Plasmodium falciparum [3] = assay: Hit confirmation in dose-response curve in NF54 nanoGlo assay, at 12h; assay type: functional, organism-based, Erythrocyte; design: timepoint 12 hour; conditions: Plasmodium falciparum, NF54, Erythrocyte, 12 h
Plasmodium falciparum [4] = assay: Hit confirmation in dose-response curve in Dd2 pLDH assay, at 72h; assay type: functional, organism-based; design: timepoint 72 hour; conditions: Dd2, Erythrocyte
Plasmodium falciparum [5] = assay: Hit confirmation in dose-response curve in NF54 nanoGlo assay, at 72h; assay type: functional, organism-based, Erythrocyte; design: timepoint 72 hour; conditions: Plasmodium falciparum, NF54, Erythrocyte, 72 h

SMILES	IC50 (Plasmodium falciparum [2])	IC50 (Plasmodium falciparum [3])	IC50 (Plasmodium falciparum [4])	IC50 (Plasmodium falciparum [5])	IC50 at 72 h [1]
CC(C)c1ccc(Oc2cnn(-c3cccc(Cl)c3)c(=O)c2Nc2cccc(C(=O)NC3CC3)c2)cc1	10 µM	> 10 µM	6.61 µM	3.02 µM	> 10 µM
CCC(=O)N1CCc2sc(S(=O)(=O)N3CCN(c4cc(C)ccc4C)CC3)cc2C1	> 10 µM	> 10 µM	> 10 µM	5.89 µM	> 10 µM
CCc1cccc(NC(=O)N2CCC3(CC2)C(=O)N(CC(=O)Nc2ccc(F)cc2)CN3c2ccccc2)c1	10.7 µM	2.95 µM	6.76 µM	3.02 µM	> 10 µM
COc1cccc(CC(=O)N2CCc3nc(N4CCC(C)CC4)nc(Oc4ccccc4OC)c3C2)c1	10 µM	> 10 µM	4.9 µM	3.63 µM	> 10 µM
CCc1nc2cc(N3CCC(C(=O)Nc4ccc5c(c4)OCO5)CC3)cnc2nc1CC	> 10 µM	0.417 µM	> 10 µM	1.29 µM	> 10 µM
CCN(C(=O)Cn1cc(-c2ccccc2)c2ncn(CC)c(=O)c21)c1ccccc1	> 10 µM	0.363 µM	> 10 µM	0.759 µM	> 10 µM
COc1ccc2c(c1)OC13CCN(C)CC1C2C(C(=O)c1ccccc1OC)C(=O)N3 (stereo not given)	> 10 µM	1.05 µM	> 10 µM	2 µM	> 10 µM
Cc1oc(-c2ccn[nH]2)cc1S(=O)(=O)Nc1ccc(F)c(Cl)c1	> 10 µM	2.57 µM	> 10 µM	5.37 µM	> 10 µM
CC1CCN(c2nccnc2Oc2ccc(C(=O)NCc3ccccc3Cl)cc2)CC1	9.55 µM	> 10 µM	6.61 µM	2.45 µM	> 10 µM
Cc1nn(-c2ccccc2)c2nc(Cc3ccccc3)nc(N3CCCN(C(=O)NC4CCCCC4)CC3)c12	> 10 µM	2.75 µM	> 10 µM	5.01 µM	> 10 µM
O=C(N1CCCN(c2nc3ccccc3nc2-c2ccccc2)CC1)C(Cl)(Cl)Cl	7.24 µM	8.91 µM	5.13 µM	2.88 µM	> 10 µM
Cc1oc(-c2ccn[nH]2)cc1S(=O)(=O)Nc1cccc(Cl)c1	7.76 µM	0.933 µM	> 10 µM	1.48 µM	> 10 µM
COc1ccc(CCNC(=O)c2cc3c(=O)[nH]c(C)cn3n2)cc1OC	> 10 µM	0.457 µM	> 10 µM	1.45 µM	> 10 µM
Cc1ccc(NC(=O)Nc2cc(C)ccc2N2CCCN(Cc3ccc(F)cc3)C2=O)cc1	14.1 µM	> 10 µM	> 10 µM	5.5 µM	> 10 µM
CC(Oc1ccc2c(c1)C(c1ccccc1)N(Cc1ccccc1F)CC2)C(=O)NC1CC1 (stereo not given)	7.59 µM	> 10 µM	3.47 µM	2.69 µM	> 10 µM
COc1cccc(NC(=O)Cn2c(C)ccc(NS(=O)(=O)c3ccc(C)cc3)c2=O)c1	7.94 µM	9.12 µM	3.63 µM	3.24 µM	> 10 µM
O=C(NCc1ccccc1F)C1CCN(c2cncnc2N2CCCC2)CC1	> 10 µM	8.71 µM	7.24 µM	3.55 µM	> 10 µM
CC(C)CCn1nnnc1[C@]1(N(C)C)CCCN(C(=O)c2cccn2C)C1	> 10 µM	0.275 µM	> 10 µM	0.309 µM	> 10 µM
COCCNC(=O)c1ccc(-n2nc(-c3nnc(C)o3)c(C)c2-c2ccc(OC)cc2)cc1	> 10 µM	3.63 µM	> 10 µM	3.24 µM	> 10 µM
CCOC(=O)C1CCC(CN(Cc2ccc(OC)cc2)S(=O)(=O)c2cc(C(=O)Nc3ccc(OCC)cc3)ccc2F)CC1 (stereo not given)	> 10 µM	7.94 µM	> 10 µM	5.01 µM	> 10 µM
CC(C)N1CCC2(CC1)N=C(c1ccc3c(c1)OCO3)C[C@@H](c1cc(Cl)ccc1O)N2	> 10 µM	4.27 µM	8.32 µM	3.8 µM	> 10 µM
COc1ccc(CCNc2nc(-c3ccc(OC)cc3F)c3c(N)n(-c4ccc(Cl)cc4)nc3n2)cc1	> 10 µM	4.9 µM	6.61 µM	3.55 µM	> 10 µM

Stronger by IC50 (Plasmodium falciparum [2]), values ahead:

IC50 (Plasmodium falciparum [2])	IC50 (Plasmodium falciparum [3])	IC50 (Plasmodium falciparum [4])	IC50 (Plasmodium falciparum [5])	SMILES	IC50 at 72 h [1]
6.46 µM	2.19 µM	> 10 µM	1.55 µM	Cc1nn(-c2nc3ccccc3[nH]2)c2c1[C@@H](c1cccnc1)CC(=O)N2	> 10 µM
6.31 µM	> 10 µM	3.89 µM	1.82 µM	COc1ccc(S(=O)(=O)N2CCC(c3cc(N)on3)CC2)cc1Cl	> 10 µM
5.01 µM	> 10 µM	> 10 µM	3.98 µM	O=C(Cc1ccc(N(Cc2cccc(F)c2)C(=O)C2CCCC2)cc1)NCCN1CCCC1	> 10 µM
4.79 µM	> 10 µM	3.39 µM	2.82 µM	Cc1cccc(-c2nc(C[N+]3(Cc4nc(-c5cccc(C)c5)oc4C)CCCC3)c(C)o2)c1	> 10 µM
3.63 µM	4.27 µM	3.63 µM	2 µM	CCN(CC)c1ccc(C(=O)Nc2ccc3nc(N4CCCC4)cc(C)c3c2)cc1	> 10 µM
3.55 µM	8.71 µM	2.57 µM	1.74 µM	COc1ccc2[nH]c3c(c2c1)CCN(C(=O)c1ccc(C)c(C)c1)[C@@H]3c1ccccc1OC	> 10 µM
3.39 µM	2.34 µM	> 10 µM	2.14 µM	Cc1oc(-c2ccc(C(=O)N3CCN(c4ccccc4)CC3)cc2)nc1CN1CCC(C)CC1	> 10 µM
3.24 µM	2.82 µM	2.19 µM	0.933 µM	COc1cccc(S(=O)(=O)N2CCCN(Cc3ccncc3)[C@H](c3ccccc3)CC(=O)NCC2)c1	> 10 µM
3.24 µM	1.26 µM	2.75 µM	1.2 µM	O=C(Nc1cc(-c2onc3c2CCCC3)cc(C(F)(F)F)c1)c1cncc(Br)c1	> 10 µM
2.88 µM	0.912 µM	1.82 µM	0.288 µM	CCC(C(=O)Nc1ccc2c(c1)CN(CCc1ccc(OC)c(OC)c1)C(=O)C(C)O2)c1ccccc1 (stereo not given)	> 10 µM
2.88 µM	6.03 µM	2.82 µM	1.62 µM	CC(C)(C)n1nc2nc(NCCN3CCCCC3)nc(-c3ccc(F)c(Cl)c3)c2c1N	> 10 µM
2.82 µM	3.31 µM	2.09 µM	1.66 µM	CC(C)c1cccc(Nc2nc3ccncc3n(C(C)C)c2=O)c1	> 10 µM
2.69 µM	> 10 µM	4.07 µM	3.63 µM	Cc1c(F)cccc1NC(=O)N1CCN(C2=CC3=N[C@@H](C)CN3C=N2)CC1	> 10 µM
2.69 µM	4.07 µM	2.63 µM	2.63 µM	O=C(NCCN1CCCC1)c1ccc2nc(-c3ccc(Cl)cc3)cn2c1	> 10 µM
2.69 µM	2.63 µM	2.4 µM	1.82 µM	CCc1cccc(NC(=O)Cn2ccc3ccc(-c4nnc(C)o4)cc32)c1	> 10 µM
2.45 µM	> 10 µM	6.31 µM	3.98 µM	CC1CCN(C[C@H]2CCCCCN2C(=O)NCCc2ccccc2)CC1	> 10 µM
2.45 µM	4.37 µM	2.04 µM	1.48 µM	Cc1cc(C)cc(-c2cc3nc(C)cc(N4CCC(C(=O)NCc5cccc(F)c5)CC4)n3n2)c1	> 10 µM
2.29 µM	> 10 µM	1.35 µM	1.48 µM	Cc1ccc2c(c1)c1c(n2S(=O)(=O)c2ccc(C(C)(C)C)cc2)CCCN(C)C1	> 10 µM
1.66 µM	> 10 µM	5.37 µM	2.51 µM	CCN1CCN(C(=O)c2ccccc2N2CCC(NC(=O)c3cccc(Br)c3)CC2)CC1	> 10 µM
1.26 µM	> 10 µM	3.39 µM	2.82 µM	CC[C@H]1CN2C=NC(N3CCN(C(=O)Nc4cc(F)cc(F)c4)CC3)=CC2=N1	> 10 µM
1.26 µM	> 10 µM	3.63 µM	3.72 µM	CCn1ncc(CN2CC[C@@H]3C(=O)NCCCCCCN(Cc4ccncc4)[C@@H]3C2)c1C	> 10 µM
1.15 µM	7.08 µM	1.17 µM	1.1 µM	COc1ccc(CN2CC[C@@H]3C(=O)NCCCCCCN(Cc4ccncc4)[C@@H]3C2)cc1Cn1ccnc1	> 10 µM
1.12 µM	> 10 µM	2.95 µM	3.09 µM	CCc1cccc(NC(=O)N2CCN(C3=CC4=NC[C@H](C)N4C=N3)CC2)c1	> 10 µM
1 µM	3.16 µM	2.69 µM	2 µM	Cc1nnc(-c2ccc3ccn(CC(=O)Nc4ccc(F)c(Cl)c4)c3c2)o1	> 10 µM
0.617 µM	> 10 µM	0.724 µM	0.501 µM	O=C(Cc1ccc(N(Cc2cccc(F)c2)C(=O)C2CCCC2)cc1)NCCN1CCCCC1	> 10 µM
0.513 µM	> 10 µM	> 10 µM	3.16 µM	COc1ccccc1CN(C(=O)c1ccc(C)cc1)c1ccc(CC(=O)NCCN2CCCCC2)cc1	> 10 µM

— ChEMBL document CHEMBL4888484, “Replenishing the malaria drug discovery pipeline: Screening and hit evaluation of the MMV Hit Generation Library 1 (HGL1) against asexual blood stage Plasmodium falciparum ,using a nano luciferase reporter read-out” (2022)
